The results in this text go back to PubChem BioAssay AID206 (DTP/NCI, 2004).

The subject of this assay is nude mice, HT29 intrarenal xenograft, tumor weight T/C. Description: NCI In Vivo Anticancer Drug Screen. Data for tumor model HT29;CX-1 Human Adenocarcinoma (MER+) (intrarenal inoculation) in NU/NU Swiss (nude) mice. As to conditions: endpoint: mean tumor weight change, higher = larger tumour. The gist of the method:
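Endpoint measured as tumor size or survival; ratio reported is treated group over vehicle controls.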

The mark [1] stands for this setting: dose: 300.0 mg/kg/injection, schedule: Q04DX004 (sc), vehicle: Klucel (hydroxypropylcellulose) (HPC).
Where [2] appears, read: dose: 600.0 mg/kg/injection, schedule: Q04DX004 (sc), vehicle: Klucel (hydroxypropylcellulose) (HPC).
Where [3] appears, read: dose: 1200.0 mg/kg/injection, schedule: Q04DX004 (sc), vehicle: Klucel (hydroxypropylcellulose) (HPC).
Where [4] appears, read: dose: 2400.0 mg/kg/injection, schedule: Q04DX004 (sc), vehicle: Klucel (hydroxypropylcellulose) (HPC).

Values joined by “and” are separate entries in the source; they are usually repeats but may differ in a detail not shown here. Equal values may be shown once. Results filed as inconclusive are left out. Starred links: 1 amine or outer side, 2 acyl side, 3 side chain; linkers in the order of their positions; H or OH if unused. Positions of bridges follow the written chain, without caps; N, C: chain ends. Non-standard residues stand in square brackets, D forms with d. Residues, ends and D or L forms follow the SMILES beside them. Chains are numbered I, II in the order given. Actinocin(1to9) = Cc1c2oc3c(C)ccc(C(=O)[*:2])c3nc-2c(C(=O)[*:1])c(N)c1=O; Actinocin(9to1) = Cc1c2oc3c(C)ccc(C(=O)[*:1])c3nc-2c(C(=O)[*:2])c(N)c1=O; aThr = C[C@H](O)[C@H](N)C(=O)O; NMeV = CN[CH](C(=O)O)C(C)C; Aze = O=C(O)[CH]1CCN1; Sar = CNCC(=O)O

For the molecule `Cc1c2oc3c(C)ccc(C(=O)N[C@@H]4C(=O)N[C@H](C(C)C)C(=O)N5CCC[C@H]5C(=O)N(C)CC(=O)N(C)[C@@H](C(C)C)C(=O)O[C@H]4C)c3nc-2c(C(=O)N[C@@H]2C(=O)N[C@H](C(C)C)C(=O)N3CCC[C@H]3C(=O)N(C)CC(=O)N(C)[C@@H](C(C)C)C(=O)O[C@H]2C)c(N)c1=O` (I: [aThr][dV]P[Sar][NMeV] / II: [aThr][dV]P[Sar][NMeV]; ester I:1-I:C, II:1-II:C; linker I:N-II:N via Actinocin(9to1)), the T/C (dose: 25.0 micrograms/kg/injection, schedule: Q01DX010 (sc), vehicle: saline) was 31 % of control.

`CN(C)N=Nc1ccccc1`: the T/C (dose: 25.0 mg/kg/injection, schedule: Q04DX004 (sc), vehicle: Klucel (hydroxypropylcellulose) (HPC)) is 93 % of control; the T/C (dose: 50.0 mg/kg/injection, schedule: Q04DX004 (sc), vehicle: Klucel (hydroxypropylcellulose) (HPC)) is 62 % of control; the T/C (dose: 100.0 mg/kg/injection, schedule: Q04DX004 (sc), vehicle: Klucel (hydroxypropylcellulose) (HPC)) is 84 % of control.

For `OCC1OC(n2cnc3c(=S)nc[nH]c32)C(O)C1O` (stereo not drawn), the T/C is 54 % of control (dose: 25.0 mg/kg/injection, schedule: Q01DX010 (sc), vehicle: saline); 77 % of control (dose: 50.0 mg/kg/injection, schedule: Q01DX010 (sc), vehicle: saline); 108 % of control (dose: 100.0 mg/kg/injection, schedule: Q01DX010 (sc), vehicle: saline).

For the molecule `Cc1c(N)nc(C(CC(N)=O)NCC(N)C(N)=O)nc1C(=O)NC(C(=O)NC(C)C(O)C(C)C(=O)NC(C(=O)NCCc1nc(-c2nc(C(=O)NCCCNC(C)c3ccccc3)cs2)cs1)C(C)O)C(OC1OC(CO)C(O)C(O)C1OC1OC(CO)C(O)C(OC(N)=O)C1O)c1cnc[nH]1` (stereo not drawn), the T/C (dose: 2.0 mg/kg/injection, schedule: Q01DX010 (sc), vehicle: saline) was 64 % of control; the T/C (dose: 4.0 mg/kg/injection, schedule: Q01DX010 (sc), vehicle: saline) is 65 % of control; the T/C (dose: 8.0 mg/kg/injection, schedule: Q01DX010 (sc), vehicle: saline) was 76 % of control; the T/C (dose: 16.0 mg/kg/injection, schedule: Q01DX010 (sc), vehicle: saline) was 65 % of control.

Consider `Cc1c(N)nc([C@H](CC(N)=O)NC[C@H](N)C(N)=O)nc1C(=O)N[C@H](C(=O)N[C@H](C)[C@@H](O)CC(=O)N[C@H](C(=O)NC(O[C@@H]1O[C@@H](C)[C@@H](N)[C@@H](O)[C@H]1O)C(O)c1nc(-c2nc(C(=O)NCCCCN)cs2)cs1)[C@@H](C)O)[C@@H](O[C@@H]1O[C@@H](CO)[C@@H](O)[C@H](O)[C@@H]1O[C@H]1O[C@H](CO)[C@@H](O)[C@H](OC(N)=O)[C@@H]1O)c1c[nH]cn1` (stereo partly drawn), for which the T/C (dose: 4.0 mg/kg/injection, schedule: Q04DX004 (sc), vehicle: saline) was 104 % of control; the T/C (dose: 8.0 mg/kg/injection, schedule: Q04DX004 (sc), vehicle: saline) was 68 % of control; the T/C (dose: 16.0 mg/kg/injection, schedule: Q04DX004 (sc), vehicle: saline) is 73 % of control; the T/C (dose: 32.0 mg/kg/injection, schedule: Q04DX004 (sc), vehicle: saline) is 28 % of control.

Turning to `Cc1ccc(C2NC(=S)N3C(c4ccc(C)cc4)NC(=S)N23)cc1` (stereo not drawn), the T/C runs as follows: under setting [1], 75 % of control; under setting [2], 80 % of control; under setting [3], 69 % of control; under setting [4], 75 % of control.

Take `N#CCCSC(=S)C1CCCC1=N` (stereo not drawn): the T/C runs as follows: (dose: 225.0 mg/kg/injection, schedule: Q04DX004 (sc), vehicle: saline with Tween-80) 104 % of control; (dose: 450.0 mg/kg/injection, schedule: Q04DX004 (sc), vehicle: saline with Tween-80) 106 % of control; (dose: 900.0 mg/kg/injection, schedule: Q04DX004 (sc), vehicle: saline with Tween-80) 114 % of control; (dose: 1800.0 mg/kg/injection, schedule: Q04DX004 (sc), vehicle: saline with Tween-80) 103 % of control.

Regarding `COc1cc(Cl)ccc1C`, the T/C was 64 % of control (dose: 300.0 mg/kg/injection, schedule: Q04DX004 (sc), vehicle: saline with Tween-80); 90 % of control (dose: 600.0 mg/kg/injection, schedule: Q04DX004 (sc), vehicle: saline with Tween-80); 76 % of control (dose: 1200.0 mg/kg/injection, schedule: Q04DX004 (sc), vehicle: saline with Tween-80); 84 % of control (dose: 2400.0 mg/kg/injection, schedule: Q04DX004 (sc), vehicle: saline with Tween-80).

As for `COc1ccc(OC)c(/C=C/c2ccnc3ccccc23)c1`, the T/C was 92 % of control (dose: 100.0 mg/kg/injection, schedule: Q01DX010 (sc), vehicle: saline with Tween-80); 61 % of control (dose: 200.0 mg/kg/injection, schedule: Q01DX010 (sc), vehicle: saline with Tween-80); 91 % of control (dose: 400.0 mg/kg/injection, schedule: Q01DX010 (sc), vehicle: saline with Tween-80); 113 % of control (dose: 800.0 mg/kg/injection, schedule: Q01DX010 (sc), vehicle: saline with Tween-80).

With `Cn1cc(C2NC(=O)c3ccccc3N2)c2ccccc21` (stereo not drawn), the T/C is 97 % of control under setting [1], 116 % of control under setting [2], 60 % of control under setting [3] and 94 % of control under setting [4].

As for `CC1OC(=O)C(C(C)C)NC(=O)C(C(C)C)OC(=O)C(C(C)C)NC(=O)C(C)OC(=O)C(C(C)C)NC(=O)C(C(C)C)OC(=O)C(C(C)C)NC(=O)C(C)OC(=O)C(C(C)C)NC(=O)C(C(C)C)OC(=O)C(C(C)C)NC1=O` (stereo not drawn), the T/C (dose: 5.0 mg/kg/injection, schedule: Q01DX010 (sc), vehicle: saline with Tween-80) is 87 % of control and 103 % of control.

For the molecule `CCOC(=O)NC1=C(N2CC2)C(=O)C(NC(=O)OCC)=C(N2CC2)C1=O`, the T/C (dose: 3.13 mg/kg/injection, schedule: Q04DX004 (sc), vehicle: suspension in saline) is 55 % of control.

For `N=C(N)SCc1cccc2c(=O)cc(-c3ccccc3)oc12`, the T/C is 110 % of control (dose: 150.0 mg/kg/injection, schedule: Q04DX004 (sc), vehicle: suspension in saline); 113 % of control (dose: 300.0 mg/kg/injection, schedule: Q04DX004 (sc), vehicle: suspension in saline); 106 % of control (dose: 600.0 mg/kg/injection, schedule: Q04DX004 (sc), vehicle: suspension in saline); 69 % of control (dose: 1200.0 mg/kg/injection, schedule: Q04DX004 (sc), vehicle: suspension in saline).

As for `Cc1c2oc3c(C)ccc(C(=O)NC4C(=O)NC(C(C)C)C(=O)N5CCCC5C(=O)N(C)CC(=O)N(C)C(C(C)C)C(=O)OC4C)c3nc-2c(C(=O)NC2C(=O)NC(C(C)C)C(=O)N3CCC3C(=O)N(C)CC(=O)N(C)C(C(C)C)C(=O)OC2C)c(N)c1=O` (stereo not drawn) (I: TV[Aze][Sar][NMeV] / II: TVP[Sar][NMeV]; ester I:1-I:C, II:1-II:C; linker I:N-II:N via Actinocin(1to9); configuration not given here), the T/C by setting is: (dose: 0.5 mg/kg/injection, schedule: Q04DX004 (sc), vehicle: saline + alcohol) 59 % of control; (dose: 1.0 mg/kg/injection, schedule: Q04DX004 (sc), vehicle: saline + alcohol) 30 % of control.

Take `C=C1N(C)c2ccccc2C1(C)C`: the T/C (dose: 50.0 mg/kg/injection, schedule: Q04DX004 (sc), vehicle: saline with Tween-80) is 66 % of control; the T/C (dose: 100.0 mg/kg/injection, schedule: Q04DX004 (sc), vehicle: saline with Tween-80) was 73 % of control; the T/C (dose: 200.0 mg/kg/injection, schedule: Q04DX004 (sc), vehicle: saline with Tween-80) was 94 % of control.

For `CCC(=O)O[C@H]1CC[C@H]2[C@@H]3CCC4=CC(=O)CC[C@]4(C)[C@H]3CC[C@]12C`, the T/C reads like this: under setting [1], 59 % of control; under setting [2], 82 % of control; under setting [3], 103 % of control; under setting [4], 52 % of control.

For `O=CC(S)CO` (stereo not drawn), the T/C was 92 % of control (dose: 100.0 mg/kg/injection, schedule: Q04DX004 (sc), vehicle: suspension in saline); 69 % of control (dose: 200.0 mg/kg/injection, schedule: Q04DX004 (sc), vehicle: suspension in saline); 101 % of control (dose: 400.0 mg/kg/injection, schedule: Q04DX004 (sc), vehicle: suspension in saline); 72 % of control (dose: 800.0 mg/kg/injection, schedule: Q04DX004 (sc), vehicle: suspension in saline).

For the molecule `CCCC(=O)O.CCCC(=O)O.CCCC(=O)O.CCCC(=O)O.[Rh].[Rh]`, the T/C is 99 % of control (dose: 0.5 mg/kg/injection, schedule: Q04DX004 (sc), vehicle: suspension in saline); 75 % of control (dose: 1.0 mg/kg/injection, schedule: Q04DX004 (sc), vehicle: suspension in saline); 97 % of control (dose: 2.0 mg/kg/injection, schedule: Q04DX004 (sc), vehicle: suspension in saline); 155 % of control (dose: 4.0 mg/kg/injection, schedule: Q04DX004 (sc), vehicle: suspension in saline).
